Laboratory results: US8440708B2, “Triazole-substituted arylamides as P2X3 and P2X2/3 antagonists” (Roche Palo Alto LLC, priority 2007, dated 2013)

Experiments:
rat P2X3 receptor = biological target: T1, rat P2X3 receptor (Rattus norvegicus, UniProt P49654); assay: P2X3/P2X2/3 FLIPR (Fluorometric Imaging Plate Reader) Assay, P2X3; assay type: cell-based; conditions: CHO-K1 cells transfected with rat P2X3; agonist α,β-meATP 1 μM; Table 1; read-out: P2X3 pKi (converted)
T1 construct: expressed in transfected cells; host or cells: CHO-K1
T1 sequence (P49654 1-397): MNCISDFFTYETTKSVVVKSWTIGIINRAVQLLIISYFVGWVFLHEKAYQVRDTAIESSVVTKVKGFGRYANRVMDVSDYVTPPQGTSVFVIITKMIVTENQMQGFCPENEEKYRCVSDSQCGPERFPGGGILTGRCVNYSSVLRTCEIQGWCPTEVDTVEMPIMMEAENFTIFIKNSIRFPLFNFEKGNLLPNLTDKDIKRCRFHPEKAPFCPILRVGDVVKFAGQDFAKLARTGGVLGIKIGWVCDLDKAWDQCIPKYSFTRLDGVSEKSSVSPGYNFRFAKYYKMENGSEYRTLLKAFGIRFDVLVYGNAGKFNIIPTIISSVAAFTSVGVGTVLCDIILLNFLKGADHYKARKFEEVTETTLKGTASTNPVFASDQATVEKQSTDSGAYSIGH
How it was run: (§1)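 Inhibition curves came from nonlinear regression of peak fluorescence after α,β-meATP, given at 1 μM final for rat P2X3 and 5 μM for human P2X2/3. Compounds sat 20 min at room temperature on Fluo-3-loaded transfected CHO-K1 cells in HBSS/HEPES/2 mM CaCl2/probenecid buffer before agonist.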

human P2X2/3 receptor = biological target: T2, human P2X2/3 receptor (Homo sapiens, UniProt P56373+Q9UBL9); assay: P2X3/P2X2/3 FLIPR (Fluorometric Imaging Plate Reader) Assay, P2X2/3; assay type: cell-based; conditions: CHO-K1 cells transfected with human P2X2/3; agonist α,β-meATP 5 μM; Table 1; read-out: P2X2/3 pKi (converted)
T2 construct: expressed in transfected cells; host or cells: CHO-K1
T2 sequence (Q9UBL9 1-471): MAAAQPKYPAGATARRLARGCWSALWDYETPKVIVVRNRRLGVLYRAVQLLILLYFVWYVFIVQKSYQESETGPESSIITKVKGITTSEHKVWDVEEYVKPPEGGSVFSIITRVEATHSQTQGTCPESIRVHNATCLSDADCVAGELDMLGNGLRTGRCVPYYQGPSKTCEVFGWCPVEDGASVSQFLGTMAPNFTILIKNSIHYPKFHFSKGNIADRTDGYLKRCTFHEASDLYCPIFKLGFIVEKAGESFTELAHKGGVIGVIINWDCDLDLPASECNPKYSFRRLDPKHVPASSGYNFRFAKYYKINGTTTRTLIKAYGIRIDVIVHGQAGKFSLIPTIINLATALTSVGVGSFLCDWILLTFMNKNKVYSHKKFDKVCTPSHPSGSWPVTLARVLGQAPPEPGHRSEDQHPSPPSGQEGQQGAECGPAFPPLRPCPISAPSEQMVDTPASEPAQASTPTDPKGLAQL
T2 sequence (P56373 1-397): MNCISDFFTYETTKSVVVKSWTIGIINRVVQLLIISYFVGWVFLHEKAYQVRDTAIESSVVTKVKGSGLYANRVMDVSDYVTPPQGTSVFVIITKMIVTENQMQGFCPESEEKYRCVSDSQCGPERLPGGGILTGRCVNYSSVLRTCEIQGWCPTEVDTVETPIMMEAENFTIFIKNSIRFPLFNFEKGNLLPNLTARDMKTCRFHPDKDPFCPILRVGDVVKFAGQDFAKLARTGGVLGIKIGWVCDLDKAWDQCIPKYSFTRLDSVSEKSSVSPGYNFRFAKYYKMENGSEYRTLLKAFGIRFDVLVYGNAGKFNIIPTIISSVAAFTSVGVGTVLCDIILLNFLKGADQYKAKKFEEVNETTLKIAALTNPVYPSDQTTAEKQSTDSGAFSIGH
How it was run: as §1

Row | SMILES | Ki (rat P2X3 receptor) | Ki (human P2X2/3 receptor)
1 | Cc1ccc(-c2cc(C(=O)NC(C)c3cnccn3)cc(-n3ncnc3C3CC3)c2)nc1 (stereo not drawn) [Compound 60, 3-(5-Cyclopropyl-[1,2,4]triazol-1-yl)-5-(5-methyl-pyridin-2-yl)-N-(1-pyrazin-2-yl-ethyl)-benzamide] | 19.1 nM | 389 nM
2 | Cc1ccc(-c2cc(C(=O)NC(C)c3cnccn3)cc(-n3ncnc3C(C)N(C)C)c2)cc1 (stereo not drawn) [Compound 61, 5-[5-(1-Dimethylamino-ethyl)-[1,2,4]triazol-1-yl]-4′-methyl-biphenyl-3-carboxylic acid (1-pyrazin-2-yl-ethyl)-amide] | 5.25 nM | 51.3 nM
3 | Cc1ccc(-c2cc(C(=O)NCc3cnc(C)cn3)cc(-n3ncnc3C(C)N(C)C)c2)cc1 (stereo not drawn) [Compound 62, 5-[5-(1-Dimethylamino-ethyl)-[1,2,4]triazol-1-yl]-4′-methyl-biphenyl-3-carboxylic acid (5-methyl-pyrazin-2-ylmethyl)-amide] | 5.25 nM | 43.7 nM
4 | CCCc1ncnn1-c1cc(C(=O)NC(C)CN(C)C)cc(-c2ccc(C)cc2)c1 (stereo not drawn) [Compound 63, 4′-Methyl-5-(5-propyl-[1,2,4]triazol-1-yl)-biphenyl-3-carboxylic acid (2-dimethylamino-1-methyl-ethyl)-amide] | 339 nM | 10000 nM
5 | Cc1ccc(-c2cc(C(=O)NC3CC3)cc(-n3ncnc3C(F)(F)F)c2)cc1 [Compound 64, 4′-Methyl-5-(5-trifluoromethyl-[1,2,4]triazol-1-yl)-biphenyl-3-carboxylic acid cyclopropylamide] | 4.57 nM | 309 nM
6 | Cc1ccc(-c2cc(C(=O)N[C@@H](C)CO)cc(-n3ncnc3C(F)(F)F)c2)cc1 [Compound 65, 4′-Methyl-5-(5-trifluoromethyl-[1,2,4]triazol-1-yl)-biphenyl-3-carboxylic acid ((S)-2-hydroxy-1-methyl-ethyl)-amide] | 6.76 nM | 2000 nM
7 | Cc1ccc(-c2cc(C(=O)NC(C)c3cnccn3)cc(-n3ncnc3C(F)(F)F)c2)cc1 (stereo not drawn) [Compound 66, 4′-Methyl-5-(5-trifluoromethyl-[1,2,4]triazol-1-yl)-biphenyl-3-carboxylic acid (1-pyrazin-2-yl-ethyl)-amide] | 3.72 nM | 40.7 nM
8 | Cc1ccc(-c2cc(C(=O)NCc3cnc(C)cn3)cc(-n3ncnc3C(F)(F)F)c2)cc1 [Compound 67, 4′-Methyl-5-(5-trifluoromethyl-[1,2,4]triazol-1-yl)-biphenyl-3-carboxylic acid (5-methyl-pyrazin-2-ylmethyl)-amide] | 6.31 nM | 49 nM
9 | Cc1ccc(-c2cc(C(=O)NCc3cnc(C)cn3)cc(-n3ncnc3C(C)(F)F)c2)nc1 [Compound 69, 3-[5-(1,1-Difluoro-ethyl)-[1,2,4]triazol-1-yl]-N-(5-methyl-pyrazin-2-ylmethyl)-5-(5-methyl-pyridin-2-yl)-benzamide] | 1.86 nM | 26.9 nM
10 | Cc1ccc(-c2cc(C(=O)NC(C)c3cnccn3)cc(-n3ncnc3C(C)(F)F)c2)nc1 (stereo not drawn) [Compound 70, 3-[5-(1,1-Difluoro-ethyl)-[1,2,4]triazol-1-yl]-5-(5-methyl-pyridin-2-yl)-N-(1-pyrazin-2-yl-ethyl)-benzamide] | 1.91 nM | 42.7 nM
11 | Cc1ccc(-c2cc(C(=O)N[C@@H](C)CO)cc(-n3ncnc3C(C)(F)F)c2)nc1 [Compound 71, 3-[5-(1,1-Difluoro-ethyl)-[1,2,4]triazol-1-yl]-N-((S)-2-hydroxy-1-methyl-ethyl)-5-(5-methyl-pyridin-2-yl)-benzamide] | 2.82 nM | 2290 nM
12 | Cc1ccc(-c2cc(C(=O)NC3CC3)cc(-n3ncnc3C(C)(F)F)c2)nc1 [Compound 72, N-Cyclopropyl-3-[5-(1,1-difluoro-ethyl)-[1,2,4]triazol-1-yl]-5-(5-methyl-pyridin-2-yl)-benzamide] | 9.12 nM | 2510 nM
13 | C[C@@H](CO)NC(=O)c1cc(-c2ccc(Cl)cn2)cc(-n2ncnc2C(C)(F)F)c1 [Compound 73, 3-(5-Chloro-pyridin-2-yl)-5-[5-(1,1-difluoro-ethyl)-[1,2,4]triazol-1-yl]-N-((S)-2-hydroxy-1-methyl-ethyl)-benzamide] | 8.91 nM | 2190 nM
14 | CC(C)Cc1ncnn1-c1cc(C(=O)NC(C)c2cnccn2)cc(-c2ccc(Cl)cn2)c1 (stereo not drawn) [Compound 74, 3-(5-Chloro-pyridin-2-yl)-5-(5-isobutyl-[1,2,4]triazol-1-yl)-N-(1-pyrazin-2-yl-ethyl)-benzamide] | 4.17 nM | 60.3 nM
15 | CC(NC(=O)c1cc(-c2ccc(Cl)cn2)cc(-n2ncnc2C(F)F)c1)c1cnccn1 (stereo not drawn) [Compound 76, 3-(5-Chloro-pyridin-2-yl)-5-(5-difluoromethyl-[1,2,4]triazol-1-yl)-N-(1-pyrazin-2-yl-ethyl)-benzamide] | 10.2 nM | 741 nM
16 | Cc1cnc(CNC(=O)c2cc(-c3ccc(Cl)cn3)cc(-n3ncnc3C(F)F)c2)cn1 [Compound 77, 3-(5-Chloro-pyridin-2-yl)-5-(5-difluoromethyl-[1,2,4]triazol-1-yl)-N-(5-methyl-pyrazin-2-ylmethyl)-benzamide] | 9.77 nM | 724 nM
17 | C[C@@H](CO)NC(=O)c1cc(-c2ccc(Cl)cn2)cc(-n2ncnc2C(F)F)c1 [Compound 78, 3-(5-Chloro-pyridin-2-yl)-5-(5-difluoromethyl-[1,2,4]triazol-1-yl)-N-((S)-2-hydroxy-1-methyl-ethyl)-benzamide] | 75.9 nM | 8710 nM
18 | CC(NC(=O)c1cc(-c2ccc(Cl)cn2)cc(-n2ncnc2C(F)(F)F)c1)c1cnccn1 (stereo not drawn) [Compound 79, 3-(5-Chloro-pyridin-2-yl)-N-(1-pyrazin-2-yl-ethyl)-5-(5-trifluoro-methyl-[1,2,4]triazol-1-yl)-benzamide] | 8.51 nM | 372 nM
19 | Cc1cnc(CNC(=O)c2cc(-c3ccc(Cl)cn3)cc(-n3ncnc3C(F)(F)F)c2)cn1 [Compound 80, 3-(5-Chloro-pyridin-2-yl)-N-(5-methyl-pyrazin-2-ylmethyl)-5-(5-trifluoromethyl-[1,2,4]triazol-1-yl)-benzamide] | 8.91 nM | 275 nM
20 | C[C@@H](CO)NC(=O)c1cc(-c2ccc(Cl)cn2)cc(-n2ncnc2C(F)(F)F)c1 [Compound 81, 3-(5-Chloro-pyridin-2-yl)-N-((S)-2-hydroxy-1-methyl-ethyl)-5-(5-trifluoromethyl-[1,2,4]triazol-1-yl)-benzamide] | 45.7 nM | 3890 nM
21 | Cc1ccc(-c2cc(C(=O)NCc3cnc(C)cn3)cc(-n3ncnc3C(C)(C)C)c2)nc1 [Compound 82, 3-(5-tert-Butyl-[1,2,4]triazol-1-yl)-N-(5-methyl-pyrazin-2-ylmethyl)-5-(5-methyl-pyridin-2-yl)-benzamide] | 6.03 nM | 1350 nM
22 | CC(NC(=O)c1cc(-c2ccc(Cl)cn2)cc(-n2ncnc2C(C)(C)C)c1)c1cnccn1 (stereo not drawn) [Compound 83, 3-(5-tert-Butyl-[1,2,4]triazol-1-yl)-5-(5-chloro-pyridin-2-yl)-N-(1-pyrazin-2-yl-ethyl)-benzamide] | 12.3 nM | 115 nM
23 | Cc1cnc(CNC(=O)c2cc(-c3ccc(Cl)cn3)cc(-n3ncnc3C(C)(C)C)c2)cn1 [Compound 84, 3-(5-tert-Butyl-[1,2,4]triazol-1-yl)-5-(5-chloro-pyridin-2-yl)-N-(5-methyl-pyrazin-2-ylmethyl)-benzamide] | 14.1 nM | 427 nM
24 | C[C@@H](CO)NC(=O)c1cc(-c2ccc(Cl)cn2)cc(-n2ncnc2C(C)(C)C)c1 [Compound 85, 3-(5-tert-Butyl-[1,2,4]triazol-1-yl)-5-(5-chloro-pyridin-2-yl)-N-((S)-2-hydroxy-1-methyl-ethyl)-benzamide] | 41.7 nM | 3550 nM
